Data: patent publication US20260234196A1 (priority 2021, published 2026)
Ends that are not written are not given here. Peptide text beside a SMILES is read from it.

Experiments:
293T-ACE2^+ cells = experiment: Cytotoxicity by CCK-8 in 293T-ACE2^+ cells; format: cell-based, human; settings: 1 nM to 100 μM, 48 h; FIGS. 9A-9C, 10A-10C
Procedure: ; • (3) The cells were washed once with PBS after discarding supernatant after culturing, 120 μL of cell counting kit-8 (CCK-8) working solution (CCK-8 working solution is obtained by mixing CCK8 stock solution and complete medium in a volume ratio of 1:10, CCK8 stock solution was purchased from Dojindo Molecular Technologies) was added to each well. After mixing, the system was incubated at 37° C. for 3 h, then the absorbance values at 450 nm and 630 nm (reference wavelength) were detected to calculate the cell viability.

[1] = biological target: spike protein of the SARS-CoV-2 pseudovirus (PSV) (SARS-CoV-2), P0DTC2; experiment: cell-based or functional assay

Molecule	effect on 293T-ACE2^+ cells viability (CCK-8) (293T-ACE2^+ cells)	neutralization ability to SARS-CoV-2 pseudovirus [1]
CC(C)C[C@H](NC(=O)[C@@H](NC(=O)[C@H](CO)NC(=O)[C@H](CO)NC(=O)[C@H](CC(=O)O)NC(=O)[C@H](Cc1ccccc1)NC(=O)[C@@H](NC(=O)[C@H](CC(=O)O)NC(=O)[C@H](CCCNC(=N)N)NC(=O)[C@@H]1CCCN1C(=O)[C@H](Cc1ccc(O)cc1)NC(=O)[C@H](Cc1ccc(O)cc1)NC(=O)[C@@H](NC(=O)CNC(=O)[C@H](CC(=O)O)NC(=O)CNC(=O)[C@@H]1CCCN1C(=O)[C@@H]1CCCN1C(=O)[C@@H]1CCCN1C(=O)[C@@H]1CCCN1C(=O)[C@H](CS)NC(=O)[C@@H](N)CS)C(C)C)C(C)C)C(C)C)C(=O)N[C@@H](CC(=O)O)C(=O)N[C@@H](CO)C(=O)N[C@H](C(=O)N[C@@H](CCC(N)=O)C(=O)N[C@@H](CCCNC(=N)N)C(=O)O)[C@@H](C)O [KVp-N1] (H-CCPPPPGDGVYYPRDVFDSSVLDSTQR-OH)	not significant	–
CC[C@H](C)[C@H](NC(=O)[C@H](CCCNC(=N)N)NC(=O)[C@H](CC(=O)O)NC(=O)[C@H](CCCNC(=N)N)NC(=O)[C@H](Cc1ccccc1)NC(=O)[C@@H]1CCCN1C(=O)[C@H](CC(=O)O)NC(=O)[C@H](CC(C)C)NC(=O)[C@H](CC(N)=O)NC(=O)[C@H](CO)NC(=O)[C@H](CC(=O)O)NC(=O)[C@H](CC(=O)O)NC(=O)[C@H](Cc1ccccc1)NC(=O)[C@H](CC(C)C)NC(=O)[C@H](CC(=O)O)NC(=O)CNC(=O)[C@@H]1CCCN1C(=O)[C@@H]1CCCN1C(=O)[C@@H]1CCCN1C(=O)[C@@H]1CCCN1C(=O)[C@H](CS)NC(=O)[C@@H](N)CS)C(=O)N[C@@H](CO)C(=O)N[C@H](C(=O)N[C@@H](CCCNC(=N)N)C(=O)N[C@@H](CCCNC(=N)N)C(=O)O)[C@@H](C)O [KVp-R14] (H-CCPPPPGDLFDDSNLDPFRDRISTRR-OH)	not significant	–
GDGVYYPRDVFDSSVLDSTQR [KVp-N1N]	not significant	–
GDLFDDSNLDPFRDRISTRR [KVp-R14N]	not significant	–
CCPPPPGDLFDDSNLDPFRDRISTRR (modifications not checked) [polypeptide KVp-R14]	–	50%
CCPPPPGDGVYYPRDVFDSSVLDSTQR (modifications not checked) [polypeptide KVp-N1]	–	50%
